Source: ChEMBL document CHEMBL1134046, “Phthalazine PDE4 inhibitors. Part 2: the synthesis and biological evaluation of 6-methoxy-1,4-disubstituted derivatives” (Bioorg Med Chem Lett, 2001)
Each block holds one compound with its values, some of them ahead of it.

How the values were obtained:
Homo sapiens = organism: Homo sapiens; experiment: Inhibition of TNF-alpha synthesis in human monocytes; assay type: functional, organism-based
Phosphodiesterase 4 [1] = target: T1, Phosphodiesterase 4 (Homo sapiens, UniProt P27815+Q08499+Q07343+Q08493); experiment: Inhibition of human neutrophil phosphodiesterase 4; assay type: protein assay
Phosphodiesterase 4 [2] = target: T1, Phosphodiesterase 4; experiment: Inhibition of rolipram binding to PDE4; assay type: protein assay
Phosphodiesterase 4 [3] = target: T1, Phosphodiesterase 4; experiment: Percent inhibition of human Phosphodiesterase 4 at 10e-7 M; assay type: protein assay
[4] = Oral bioavailability in rat; assay type: ADME, organism-based; details: in vivo
Cavia porcellus [5] = experiment: Percent inhibition of eosinophil infiltration in the guinea pig at 30 uM/kg (ip); assay type: functional
Rattus norvegicus [6] = organism: Rattus norvegicus; experiment: Increased acid secretion in the isolated whole rat stomach; assay type: functional
Rattus norvegicus [7] = organism: Rattus norvegicus; experiment: In vitro metabolic stability in rat hepatocytes; assay type: ADME, Hepatocyte
Canis familiaris [8] = experiment: Emetic effect in dog on intravenous administration; assay type: functional; details: Canis lupus familiaris
Canis familiaris [9] = experiment: Emetic effect in dog after intravenous administration; assay type: functional; details: Canis lupus familiaris
Phosphodiesterase 4 [10] = target: T1, Phosphodiesterase 4
Description: Inhibition of human Phosphodiesterase 4

Phosphodiesterase 4 [11] = target: T1, Phosphodiesterase 4; experiment: Percent inhibition of human neutrophil phosphodiesterase 4 at 10e-7 M; assay type: protein assay
Cavia porcellus [12] = experiment: Percent inhibition of eosinophil infiltration in the guinea pig at 30 uM/kg ip; assay type: functional
Rattus norvegicus [13] = organism: Rattus norvegicus; experiment: In vitro and metabolic stability was determined; assay type: ADME
Phosphodiesterase 4 [14] = target: T1, Phosphodiesterase 4; experiment: Inhibition of human neutrophil Phosphodiesterase 4; assay type: protein assay
Phosphodiesterase 4 [15] = target: T1, Phosphodiesterase 4; experiment: Inhibition of rolipram binding to PDE4 at 10e-5 M; assay type: protein assay
Phosphodiesterase 4 [16] = target: T1, Phosphodiesterase 4; experiment: Inhibition of rolipram binding to PDE4 at 10e-6 M; assay type: protein assay

IC50 (Homo sapiens): 166 nM | IC50 (Phosphodiesterase 4 [1]): 132 nM | Ki (Phosphodiesterase 4 [2]): 436 nM
SMILES: COc1ccc2c(Cc3c(Cl)cncc3Cl)nnc(Oc3ccccc3)c2c1

Inhibition (Phosphodiesterase 4 [3]): 39%
SMILES: COc1ccc2c(Cc3c(Cl)cncc3Cl)nnc(N(C)C)c2c1

Inhibition (Phosphodiesterase 4 [3]): 16%
SMILES: COc1ccc2c(Cc3c(Cl)cncc3Cl)nnc(N3CCN(C)CC3)c2c1

Inhibition (Phosphodiesterase 4 [3]): 19%
SMILES: COc1ccc2c(Cc3c(Cl)cncc3Cl)nnc(CCCCc3ccccc3)c2c1

IC50 (Homo sapiens): 158 nM | bioavailability [4]: 35% | IC50 (Rattus norvegicus [6]): 1000 nM | Met. stab. Cl. int (Rattus norvegicus [7]): 9.2 ul min-1 (10e6*cells)-1
SMILES: COc1ccc([C@]2(C#N)CC[C@@H](C(=O)O)CC2)cc1OC1CCCC1 [CILOMILAST]
Inhibition (Cavia porcellus [5]): 17% | ED50 (Canis familiaris [8]): 10 µmol/kg

IC50 (Homo sapiens): 72 nM | bioavailability [4]: 27% | IC50 (Phosphodiesterase 4 [1]): 72 nM | IC50 (Rattus norvegicus [6]): > 30000 nM | Ki (Phosphodiesterase 4 [2]): 241 nM | Met. stab. Cl. int (Rattus norvegicus [7]): 1.5 ul min-1 (10e6*cells)-1
SMILES: COc1ccc2c(Cc3c(Cl)cncc3Cl)nnc(-n3cncn3)c2c1
ED50 (Canis familiaris [9]): > 30 µmol/kg | Inhibition (Cavia porcellus [5]): 37% | Inhibition (Rattus norvegicus [6]): 33%

IC50 (Phosphodiesterase 4 [10]): 14 nM | IC50 (Homo sapiens): 8 nM | Ki (Phosphodiesterase 4 [2]): 34 nM
SMILES: COc1ccc2c(Cc3c(Cl)cncc3Cl)nnc(-c3nccs3)c2c1

Inhibition (Phosphodiesterase 4 [11]): 17%
SMILES: COc1ccc2c(Cc3c(Cl)cncc3Cl)nnc(-n3ccnc3)c2c1

IC50 (Phosphodiesterase 4 [10]): 37 nM | IC50 (Homo sapiens): 46 nM | bioavailability [4]: 27% | IC50 (Rattus norvegicus [6]): 4000 nM | Ki (Phosphodiesterase 4 [2]): 271 nM | Met. stab. Cl. int (Rattus norvegicus [13]): 5.8 ul min-1 (10e6*cells)-1
SMILES: COc1ccc2c(Cc3c(Cl)cncc3Cl)nnc(-c3ccccc3)c2c1
ED50 (Canis familiaris [9]): > 30 µmol/kg | Inhibition (Cavia porcellus [12]): 34%

IC50 (Phosphodiesterase 4 [10]): 93 nM | IC50 (Homo sapiens): 87 nM | Ki (Phosphodiesterase 4 [2]): 204 nM
SMILES: C#Cc1nnc(Cc2c(Cl)cncc2Cl)c2ccc(OC)cc12

IC50 (Phosphodiesterase 4 [10]): 38 nM | IC50 (Homo sapiens): 9 nM | Ki (Phosphodiesterase 4 [2]): 89 nM
SMILES: COc1ccc2c(Cc3c(Cl)cncc3Cl)nnc(N3CCCC3)c2c1

IC50 (Homo sapiens): 62 nM | IC50 (Phosphodiesterase 4 [14]): 132 nM | Ki (Phosphodiesterase 4 [2]): 452 nM
SMILES: COc1ccc2c(Cc3c(Cl)cncc3Cl)nnc(N3CCOCC3)c2c1

Inhibition (Phosphodiesterase 4 [15]): 42%
SMILES: COc1ccc2c(Cc3c(Cl)cncc3Cl)nncc2c1

Inhibition (Phosphodiesterase 4 [3]): 19%
SMILES: CCCNc1nnc(Cc2c(Cl)cncc2Cl)c2ccc(OC)cc12

Inhibition (Phosphodiesterase 4 [11]): 6%
SMILES: COc1ccc2c(Cc3c(Cl)cncc3Cl)nnc(N3CCCC3=O)c2c1

IC50 (Phosphodiesterase 4 [10]): 48 nM | Inhibition (Phosphodiesterase 4 [16]): 21% | IC50 (Homo sapiens): 273 nM
SMILES: COc1ccc2c(Cc3c(Cl)cncc3Cl)nnc(C#Cc3ccccc3)c2c1

IC50 (Phosphodiesterase 4 [10]): 4 nM | IC50 (Homo sapiens): 3 nM | Ki (Phosphodiesterase 4 [2]): 17 nM
SMILES: COc1ccc2c(Cc3c(Cl)c[n+]([O-])cc3Cl)nnc(-c3nccs3)c2c1

Inhibition (Phosphodiesterase 4 [3]): 23%
SMILES: CCc1nnc(Cc2c(Cl)cncc2Cl)c2ccc(OC)cc12

IC50 (Homo sapiens): 224 nM
SMILES: COc1ccc2c(Cc3c(Cl)cncc3Cl)nncc2c1OC1CCCC1
